Source: patent US20220315895A1, “METHODS OF MAKING OLIGOPOTENT AND UNIPOTENT PRECURSORS” (Transfusion Health, LLC, priority 2019, published 2022)

Tests used:
Format in all cases: cell-based, human
[1] = test system: expanded cord blood CD34+ cells, granulocyte precursor populations; assay: Granulocyte Differentiation Culture, precursor phenotyping (Example 39)
Text: The remaining cells from duplicate flasks were pooled, and CD34+ cells were re-enriched using the CD34 MicroBead Kit—UltraPure (Miltenyi Biotec). CD34 purity was verified by flow cytometry. Enriched CD34+ cells were then placed into Granulocyte Differentiation Culture, described below.
Granulocyte Differentiation Cultures were initiated prior to culture in Compound 1.010 (Unexpanded Granulocyte Differentiation Culture), following 21 days of culture in Compound 1.010 (+Formula I-expanded Differentiation Culture), or following 21 days of culture in Control condition (Control-expanded Differentiation Culture). Purified CD34+ cells were plated at 1000 cells per well in a 48-well plate, in granulocyte differentiation medium, made by combining StemSpan SFEM and StemSpan 100X Myeloid Expansion Supplement (formulated for differentiation of granulocytes) containing SCF, TPO, G-CSF, and GM-CSF (STEMCELL). Cells were plated in 300 μl/well. Unexpanded cells were plated in triplicate; Formula I and Control-expanded cells were plated in quadruplicate. Plates were then placed in a humidified incubator at atmospheric oxygen and 5% CO2. Exact cell numbers dispensed per well were quantified with flow cytometry for later calculations.
On days 7, and 10, additional differentiation medium was prepared and cells were passaged to fresh wells.
On days 7 and 13 of Granulocyte Differentiation Culture, a portion of the culture was removed for analysis and quantification of granulocyte differentiation via flow cytometry. Cells were stained with antibodies to CD16, CD15, CD14, CD13, CD11b, and CD34. Cells were gated into granulocyte precursor populations of promyelocyte (CD34−/CD14−/CD15+/CD16-/CD13high/CD11b−), myelocyte (CD34−/CD14−/CD15+/CD16−/CD13dim/CD11b+) and “metamyelocyte+” (CD34−/CD14−/CD15+/CD11b+/CD13+/CD16+). Promyelocyte is the least mature subset, myelocytes are at an intermediate level of maturity, and “metamyelocyte+” encompasses cells at the highest levels of granulocyte maturation, including metamyelocytes and mature neutrophils. Fractional representation and total numbers of granulocyte precursor subsets were calculated. Cell numbers calculated at day 13 account for passaging.

CD15+/CD14− cells = assay: Respiratory burst assay, dihydrorhodamine-123 / PMA (Example 39); conditions: Formula I-expanded Differentiation Cultures, day 13; 200 nM PMA 30 minutes
Procedure: On day 13 of Granulocyte Differentiation Culture, a portion of the culture was removed for in vitro analysis of granulocyte function through two separate assays for phagocytosis and respiratory burst.
In the respiratory burst assay, the ability of cells to generate reactive oxygen species (used to kill ingested bacteria) was measured. Cells were first pulsed for 15 minutes with dihydrorhodamine-123, a reagent that fluoresces only after it has been oxidized to rhodamine 123. Following this incubation, cells were treated for 30 minutes with 200 nM phorbol 12-myristate 13-acetate (PMA) to non-specifically activate the respiratory burst. Control samples without PMA were also prepared. Following this incubation, cells were stained with antibodies to CD15 and CD14, washed thoroughly, then analyzed via flow cytometry on an Attune flow cytometer. CD15+/CD14− cells were quantified for rhodamine 123 fluorescence, indicating activation of oxidative burst.

[2] = test system: CD34+ cells from mobilized peripheral blood; assay: Long-term expansion of HSCs, mobilized peripheral blood (Example 36); conditions: Compound 1.010 8 μM, up to 21 days, from day 1
Procedure: CD34+ cells from mobilized peripheral blood were purchased from STEMCELL Technologies. The blood from volunteer donors was mobilized using G-CSF. Volunteers were administered a maximum of 10 μg/kg/day of granulocyte colony-stimulating factor (G-CSF) for 3-5 days prior to collection. Primary human CD34+ cells were isolated from mobilized peripheral blood leukapheresis samples using positive immunomagnetic separation techniques.
Cryopreserved CD34+ cell samples from each source were thawed and gradually brought to room temperature. Samples were washed then placed in overnight culture in StemSpan with 100 ng/ml each of FLT3L, TPO, SCF, and TL-6.
Cultures were incubated at 3% oxygen (controlled by nitrogen) and 5% CO2.
Twenty-four hours later (day 1), cells were counted and immunophenotyped (flow cytometry on an Invitrogen Attune N×T cytometer). The media components and concentrations used for the compounds tested are described in Table 7. Culture conditions also included an antibiotic solution that includes penicillin, streptomycin, and amphotericin B to avoid contamination. Approximately 1000 cells were added to each of the cord blood and mobilized peripheral blood flasks (5 ml total volume) or wells of a 96-well plate (200 μl total volume). Approximately 2000 cells were added to each of the non-mobilized peripheral blood flasks (5 ml total volume) or wells of a 96-well plate (200 μl total volume). Exact cell numbers dispensed per condition were quantified for later calculations of fold change from day 1.
Wells were analyzed at days 7 and 10, flasks were analyzed at 14 and 21 days of incubation. Cell numbers and phenotypes were quantified with flow cytometry. At day 14, fresh conditions for flasks were prepared as on day 1, and cells were split 1:20 into the new flasks. An additional seven days later (day 21 of culture), cell numbers and phenotypes were again quantified with flow cytometry. Cell numbers calculated at day 21 account for the passaging of the cells.
Conditions in 96-well plates were prepared in quadruplicate; conditions in flasks were prepared in duplicate. On the above-indicated number of days in culture, cells from wells or flasks were collected and phenotypes were analyzed (flow cytometry on an Invitrogen Attune N×T cytometer).

[3] = +Formula I Conditions, 13 days in Granulocyte Differentiation Culture, N 4
[4] = Formula I-expanded (21 days), seven days Granulocyte Differentiation Culture

With `CC(C)(C)C(=O)Nc1ccc2c(c1)C(O)c1ccccc1-2` (stereo not drawn) [Compound 1.010] the “Metamyelocyte+, Mean % of CD15+ cells” value [1, 3] was 35.2%, the “Myelocyte, Mean % of CD15+ cells” value [1, 3] was 36.8% and the “Promyelocyte, Mean % of CD15+ cells” value [1, 3] was 28%. For the same molecule, the “cells remaining undifferentiated, without expression of CD15” value [1, 4] was 20%, the “cells still expressing CD34” value [1, 4] was 1.9% and the “cells with high CD16 indicative of full differentiation to neutrophils” value [1, 4] was “No cells were detected with high CD16”. The “metamyelocytes (CD34−/CD14−/CD15+/CD13+/CD11b+/CD16+), of cultured cells” value [1, 4] was 8%, the “myelocytes (CD34−/CD14−/CD15+/CD13low/CD11b+/CD16−), of cultured cells” value [1, 4] was 15% and the “promyelocytes (CD34−/CD14−/CD15+/CD13+/CD11b−/CD16−), of cultured cells” value [1, 4] was 55%. The “cells that activated respiratory burst when stimulated with PMA” value (CD15+/CD14− cells) was 56%, the “fold expansion of CD34+ cells” value [2] was “greater than 20 fold” and the “fold expansion of CD34+/CD133+ cells” value [2] was “greater than 40 fold”. The “fold expansion of CD34+/CD133+/CD90+ cells” value [2] was “greater than 60 fold”, the “fold expansion of CD34+/CD133+/CD90+/CD38low/− cells” value [2] was “greater than 60 fold” and the “fold expansion of CD34+/CD133+/CD90+/CD45RA− cells” value [2] was “greater than 30 fold”.
